From article PMC7377376, “Drug targeting CYP2E1 for the treatment of early-stage alcoholic steatohepatitis” (PLoS ONE, 2020)

Tests used:
[1] = system: ethanol-fed Wistar rats; assay: Serum liver enzyme activities of ethanol-fed rats; format: in vivo, rat; details: for reduction of ethanol effect on γ-GT activity: UDCA 40 mg/kg; for reduction of ethanol effect on ALT activity: average over 0.4/4/40 mg/kg b.w.; for γ-GT activity above the reference value of healthy animals: highest concentration
Excerpt: (§1) A total of 68 female Wistar rats (Institute of Pharmacology and Biochemistry Breeding House, Minsk, Belarus) aged 80–90 days and weighting 180–200 g at the beginning of the experiments were used in the study. Each rat group (n = 6–8) was housed in a separate cage and had free access to the liquid diet during the full study period. Prior to the study, the animals were habituated for seven days to the cage conditions and experimental handling. The rats were maintained in a controlled experimental environment (20–25°C, 40–50% humidity, 12 h light per day, room with a 12-h light/dark cycle).
(§2) Rats were divided into ten groups characterized by the diet and the test compounds (S1 Table). Group 1 is the first control group in which a normal solid standard diet was fed for 12 weeks. All other groups received the liquid Lieber-DeCarli (LDC) diet (S2 Table), which combines food and drink in a liquid manner. It was prepared by ssniff Spezialdiäten GmbH, Soest. The addition of maltodextrin to this diet should compensate the pure caloric effect of ethanol, whereby 1.77 g maltodextrin replaces 1 g ethanol. The calorie value of both the control and ethanol diets was the same: 35% calories from fat, 11% from carbohydrates, 18% from protein and 36% from ethanol.
(§3) In the first two weeks rats of all groups–with the exception of group 1 –were fed with LDC diet plus maltodextrin in an appropriate amount to adapt the animals to the liquid diet. Group 2 is the second control group in which the isocaloric diet was administered for further 10 weeks until the end of the experiment. […] The test compounds I-ol, I-an and UDCA were dissolved in a 0.8% aqueous HPMC gel to obtain the appropriate concentrations: (1) I-ol with 0.4, 4 and 40 mg/kg b. w. (2) I-an with 0.4, 4 and 40 mg/kg b. w. (3) UDCA with 40 mg/kg b. w. Rats of group 2 and 3 received only HPMC as a placebo. The LDC diets were fed ad libitum and their intake per cage was controlled daily. The corresponding bottles were stored in the cages from 08:00 a. m. until 06:00 p. m. and replaced by drinking water bottles overnight until 08:00 a. m. in the next morning. Every day at the same time, the test compounds or only HPMC were administered intragastrically by oral gavage with an administration volume of 2 ml/kg b. w. After ten weeks of treatment, the rats were anesthetized with an intraperitoneal injection of a 5% pentobarbital solution and then killed by aorta scarification. Their livers were dissected and liver pieces frozen and stored in liquid nitrogen. A part of the liver was fixed for histological investigations. Blood was collected before sacrifice, centrifuged for serum preparation and finally stored in liquid nitrogen.
The serum marker enzyme activities, alanine aminotransferase (ALT), aspartate aminotransferase (AST), alkaline phosphatase (AP) and gamma-glutamyltransferase (γ-GT) as well as triglycerides and bilirubin were measured according to manufacturer’s instructions using standard commercial kits from Lachema (PLIVA-Lachema Diagnostika, Czech Republic). Serum concentrations of leptin, adiponectin and TNF-alpha were analyzed using commercial ELISA test kits: BioCat GmbH (Heidelberg, German) for adiponectin and TNF-alpha, BioVendor Laboratory Medicine Inc. (Brno, Czech Republic) for leptin. Insulin serum concentration was determined by radioimmunoassay using the commercially available kit RIO-insulin-PG-J125 (IBOCH, Minsk, Belarus). Glucose serum concentration was determined by the Accu-Check Active blood glucose testing system from Roche-Diagnostics GmbH (Mannheim, Germany).

[2] = system: ethanol-fed Wistar rats; assay: Oxidative stress parameters in liver of ethanol-fed rats (Lieber-DeCarli diet); format: in vivo; design: GR activity reduction compared to disease group / increase of ethanol effect on GR activity / hydrogen peroxide amount reduced below the reference value: concentration or dose not given beside the values; details: rat liver; for reduction of ethanol effect on hydrogen peroxide: I-ol, I-an 0.4/4/40 mg/kg b.w., UDCA 40 mg/kg; for reduction of ethanol effect on hydrogen peroxide / hydrogen peroxide decrease compared to disease group / reduction of ethanol effect on reduced glutathione (GSH): oral; for reduction of ethanol effect on hydrogen peroxide / hydrogen peroxide decrease compared to disease group / reduction of ethanol effect on reduced glutathione (GSH) / SRA decrease compared to disease group: 10 weeks; for increase of ethanol effect on GR activity: as worded in Fig 3 legend; for GSH elevation compared to disease group / SRA decrease compared to disease group: average over 0.4/4/40 mg/kg b.w.; for SRA decrease compared to disease group: daily oral gavage; for reduction of ethanol effect on glutathione reductase (GR) activity: average over doses (UDCA 40 mg/kg); for GPx activity below the reference value in healthy animals: highest concentration (UDCA 40 mg/kg b.w.); for reduction of ethanol effect on glutathione peroxidase (GPx) activity: on average
Excerpt: as §1, §2, §3
The generation of reactive oxygen species (ROS) in rat liver was evaluated by NADPH-induced chemiluminescence with amplification by both luminol for the detection of superoxide (SRA) radical anion and lucigenin detecting hydrogen peroxide as described by Müller-Peddinhaus. In short, liver pieces were homogenized in 0.1 M sodium phosphate buffer pH 7.4. The homogenates were centrifuged at 9,000 x g at 0°C and aliquots were used for the measurement. Reduced glutathione (GSH) was determined by a modified Ellman`s method: 0.2 ml of the liver homogenates’ supernatant were added to 1.6 ml of an EDTA-/sodium […] solution. The absorbance was read at […] against blanks. GSH solution—prepared immediately before use—served as a standard. End products of the lipid peroxidation reaction are equivalent to TBARS (thiobarbituric acid-reacting substances) and their concentration was measured according to Buege et al.. The enzymatic activity of cytosolic glutathione peroxidase (GPx) and microsomal glutathione reductase (GR) were determined as described by Buko at al.. Catalase activity was evaluated by spectrophotometric measurement using hydrogen peroxide as a substrate according to Beers et al.. […]

[3] = design: method as in earlier work; details: compared among I-ol, I-an and I-phosphocholines; ref "ω-imidazolyl-alkyl derivatives as new preclinical drug candidates for NASH therapy"; cited from earlier work
[4] = First pharmacokinetic study of I-ol, calculated blood concentration; format: in vivo; details: rat
Method: Following these studies, we performed a single pharmacokinetic study with I-ol to get evidence for a possible further development of this lead compound. The complete study is summarized in the Word document " First pharmacokinetic study of I-ol".
Assuming a maximum oral bioavailability of 0.1 percent for I-ol, the following comparison results:
The peroral intake of 0.4 mg I-ol/kg body weight of the rat leads to a blood concentration of 6.3 ng I-ol/ml, which corresponds to 26.3 nmol I-ol/l. An average body weight of 230 g and a blood volume of 14.5 ml was assumed. The molecular mass of I-ol is 240 g/mol. An oral bioavailability of 0.1% was used despite reasonable doubt about the finality of this amount.

[5] = average over doses (UDCA 40 mg/kg)
[6] = average over 0.4/4/40 mg/kg b.w. (UDCA 40 mg/kg)

CCCCCCCCCCCCn1ccnc1 [I-an, 1-Imidazolyldodecane]
reduction of ethanol effect on γ-GT activity [1]: 60% | reduction of ethanol effect on ALT activity [1]: 59% | ALT activity decrease compared to disease group [1, 5]: 24% | AP activity decrease compared to disease group [1, 5]: 29% | AST activity decrease compared to disease group [1, 5]: 11% | reduction of ethanol effect on AST activity [1, 5]: 48% | γ-GT activity decrease compared to disease group [1, 5]: 33% | γ-GT activity above the reference value of healthy animals [1]: 12% | AST activity above the reference value of healthy animals ([1]; lowest concentration): 6% | reduction of ethanol effect on alkaline phosphatase (AP) activity ([1]; on average (UDCA 40 mg/kg)): 96% | GR activity reduction compared to disease group [2]: 11% | hydrogen peroxide amount reduced below the reference value [2]: 56% | reduction of ethanol effect on hydrogen peroxide [2]: completely reduced | increase of ethanol effect on GR activity [2]: 43% | GSH elevation compared to disease group [2]: 94% | reduction of ethanol effect on TBARS [2, 6]: 93% | hydrogen peroxide decrease compared to disease group [2, 6]: 78% | reduction of ethanol effect on reduced glutathione (GSH) [2, 6]: 55% | SRA decrease compared to disease group [2]: 43% | GPx activity elevation compared to disease group ([2]; average over doses): 10% | TBARS decrease compared to disease group ([2]; average over doses): 40% | reduction of ethanol effect on glutathione reductase (GR) activity [2]: 43% | GSH value above the reference value of healthy animals ([2]; highest concentration): 2% | TBARS level below the reference values of healthy animals ([2]; highest concentration): 31% | GPx activity below the reference value in healthy animals [2]: 10% | reduction of ethanol effect on glutathione peroxidase (GPx) activity [2]: completely reduced

OCCCCCCCCCCCCn1ccnc1 [I-ol]
tolerability in acute toxicity study (in words) [3]: best tolerated compound | reduction of ethanol effect on γ-GT activity [1]: 68% | reduction of ethanol effect on ALT activity [1]: 70% | ALT activity decrease compared to disease group [1, 5]: 29% | AST activity decrease compared to disease group [1, 5]: 14% | reduction of ethanol effect on AST activity [1, 5]: 60% | γ-GT activity decrease compared to disease group [1, 5]: 37% | γ-GT activity above the reference value of healthy animals [1]: 28% | ALT activity (in words) ([1]; lowest concentration): complete restoration of the basic activity | AP activity decrease compared to disease group ([1]; lowest concentration): 27% | AST activity above the reference value of healthy animals ([1]; lowest concentration): 6% | reduction of ethanol effect on alkaline phosphatase (AP) activity ([1]; lowest concentration): 87% | maximum oral bioavailability ([4]; oral, assumed value from first pharmacokinetic study): ≤ 0.1% | calculated blood concentration ([4]; peroral 0.4 mg/kg body weight, bioavailability 0.1% assumed): 26.3 nmol I-ol/l | calculated blood concentration ([4]; peroral 0.4 mg/kg body weight, bioavailability 0.1%, blood volume 14.5 ml, body weight 230 g assumed): 6.3 ng I-ol/ml | calculated blood concentration ([4]; peroral 4 mg/kg, bioavailability 0.1% assumed): 263 nmol/L | calculated blood concentration ([4]; peroral 40 mg/kg, bioavailability 0.1% assumed): 2630 nmol/L | GR activity reduction compared to disease group [2]: 10% | reduction of ethanol effect on hydrogen peroxide [2]: completely reduced | increase of ethanol effect on GR activity [2]: 41% | GSH elevation compared to disease group [2]: 62% | hydrogen peroxide decrease compared to disease group [2, 6]: 75% | reduction of ethanol effect on reduced glutathione (GSH) [2, 6]: 36% | SRA decrease compared to disease group [2]: 36% | GPx activity elevation compared to disease group ([2]; average over doses): 17% | reduction of ethanol effect on glutathione reductase (GR) activity [2]: 41% | TBARS decrease compared to disease group ([2]; highest concentration): 50% | TBARS level below the reference values of healthy animals ([2]; highest concentration): 11% | GPx activity below the reference value in healthy animals [2]: 8% | reduction of ethanol effect on glutathione peroxidase (GPx) activity [2]: completely reduced
